# Measured values taken from patent US20230233569A1 (Revolution Medicines, Inc., priority 2020, published 2023).
# Like-named read-outs stand apart in the source and are kept apart here.
# Key:
# KRAS G12D = KRAS G12D (Homo sapiens, UniProt P01116+P62937, G12D); test: Disruption of BRAF RBD interaction with Ras (FRET / MOA assay, with Cyclophilin A); format: biochemical
# Outline: (§1)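 First, compounds at a ten-point threefold dilution series (highest final concentration 30 μM) were incubated with nucleotide-loaded K-Ras, Cyclophilin A and BRAF RBD for 3 h at 25 °C. Next, detection antibodies were added for 1.5 h. Finally, IC50 was calculated from TR-FRET ratio decreases against DMSO controls.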
# NRAS G12C = NRAS G12C (Homo sapiens, UniProt P01111+P62937, G12C); test: as above; format: biochemical
# KRAS WT = KRAS WT (Homo sapiens, UniProt P01116+P62937); test: as above; format: biochemical
# Outline: as §1
# KRAS G12S = KRAS G12S (Homo sapiens, UniProt P01116+P62937, G12S); test: as above; format: biochemical
# Outline: as §1
# KRAS G13D = KRAS G13D (Homo sapiens, UniProt P01116+P62937, G13D); test: as above; format: biochemical
# Outline: as §1
# KRAS G13C = KRAS G13C (Homo sapiens, UniProt P01116+P62937, G13C); test: as above; format: biochemical
# Outline: as §1
# KRAS G12V = KRAS G12V (Homo sapiens, UniProt P01116+P62937, G12V); test: as above; format: biochemical
# Outline: as §1
# KRAS G12C = KRAS G12C (Homo sapiens, UniProt P01116+P62937, G12C); test: as above; format: biochemical
# Outline: as §1
# NCI-H358 (K-Ras G12C) = test: CellTiter-Glo cell viability assay, 5-day treatment; format: cell-based; conditions: Homo sapiens, NCI-H358, 120 h, 5-day treatment; read-out: H358 Cell Viability assay data (K-Ras G12C, IC50)
# Outline: (§2)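 Viability is read as luminescence on day 5 after direct compound addition to plated cells, following about 30 minutes' room-temperature equilibration. Each signal is scaled to mean DMSO as 100%.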
# Capan-1 (K-Ras G12V) = test: as above; format: cell-based; conditions: Homo sapiens, CAPAN-1, 120 h, 5-day treatment; read-out: Capan-1 Cell Viability assay data (K-Ras G12V, IC50)
# Outline: as §2
# [1] = NRAS G12C FRET data IC50, NRAS G12C
# [2] = KRAS WT FRET data IC50, KRAS WT
# [3] = KRAS G13D FRET data IC50, KRAS G13D
# [4] = KRAS G12V FRET data IC50, KRAS G12V
# [5] = read-out: KRAS G12D FRET data, IC50
# [6] = NRAS G12C, read-out: NRAS G12C FRET data IC50
# [7] = KRAS WT, read-out: KRAS WT FRET data IC50
# [8] = read-out: KRAS G12S FRET data, IC50
# [9] = KRAS G13D, read-out: KRAS G13D FRET data IC50
# [10] = read-out: KRAS G13C FRET data, IC50
# [11] = KRAS G12V, read-out: KRAS G12V FRET data IC50
# [12] = read-out: KRAS G12C FRET data, IC50
# NRAS G12C, sequence (P01111 whole entry G12C): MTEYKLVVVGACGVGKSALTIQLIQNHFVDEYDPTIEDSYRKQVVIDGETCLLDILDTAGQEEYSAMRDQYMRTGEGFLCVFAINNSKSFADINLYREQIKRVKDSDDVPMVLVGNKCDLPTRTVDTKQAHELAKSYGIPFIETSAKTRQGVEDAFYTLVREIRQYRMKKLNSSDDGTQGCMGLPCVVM
# NRAS G12C, sequence (P62937 whole entry): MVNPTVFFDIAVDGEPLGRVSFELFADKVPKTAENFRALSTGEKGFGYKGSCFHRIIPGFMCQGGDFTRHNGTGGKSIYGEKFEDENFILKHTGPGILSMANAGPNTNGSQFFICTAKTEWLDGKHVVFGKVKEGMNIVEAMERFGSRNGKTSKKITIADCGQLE
# KRAS G12D, sequence (P01116 1-169 isoform P01116-2 G12D limits assumed): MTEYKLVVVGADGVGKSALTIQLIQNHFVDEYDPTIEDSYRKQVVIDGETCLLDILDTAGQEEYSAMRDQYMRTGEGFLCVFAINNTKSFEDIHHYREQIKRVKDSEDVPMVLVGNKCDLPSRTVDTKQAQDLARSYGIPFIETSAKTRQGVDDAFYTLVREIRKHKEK
# KRAS G12D, sequence (P62937 whole entry): as the sequence (P62937 whole entry) above
# KRAS G13C, sequence (P01116 1-169 isoform P01116-2 G13C): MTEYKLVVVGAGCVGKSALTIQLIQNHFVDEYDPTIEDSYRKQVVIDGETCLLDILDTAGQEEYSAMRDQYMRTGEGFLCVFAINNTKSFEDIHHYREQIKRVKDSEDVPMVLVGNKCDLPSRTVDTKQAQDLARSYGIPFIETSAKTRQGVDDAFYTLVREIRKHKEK
# KRAS G13C, sequence (P62937 whole entry): as the sequence (P62937 whole entry) above
# KRAS G12V, sequence (P01116 1-169 isoform P01116-2 G12V limits assumed): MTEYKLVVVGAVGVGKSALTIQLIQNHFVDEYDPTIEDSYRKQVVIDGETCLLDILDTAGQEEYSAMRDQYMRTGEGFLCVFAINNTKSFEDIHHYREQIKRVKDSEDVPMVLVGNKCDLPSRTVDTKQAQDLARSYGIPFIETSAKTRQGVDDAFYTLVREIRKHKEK
# KRAS G12V, sequence (P62937 whole entry): as the sequence (P62937 whole entry) above
# KRAS G12S, sequence (P01116 1-169 isoform P01116-2 G12S limits assumed): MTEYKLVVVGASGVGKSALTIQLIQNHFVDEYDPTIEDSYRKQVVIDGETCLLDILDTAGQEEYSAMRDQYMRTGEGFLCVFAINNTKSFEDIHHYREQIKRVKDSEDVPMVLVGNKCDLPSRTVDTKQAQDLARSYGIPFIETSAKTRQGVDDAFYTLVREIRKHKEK
# KRAS G12S, sequence (P62937 whole entry): as the sequence (P62937 whole entry) above
# KRAS WT, sequence (P01116 1-169 isoform P01116-2 limits assumed): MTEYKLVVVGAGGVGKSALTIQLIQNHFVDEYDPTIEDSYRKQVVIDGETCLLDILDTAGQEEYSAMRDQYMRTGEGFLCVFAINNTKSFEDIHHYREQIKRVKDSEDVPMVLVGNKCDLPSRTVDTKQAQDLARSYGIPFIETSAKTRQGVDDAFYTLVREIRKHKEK
# KRAS WT, sequence (P62937 whole entry): as the sequence (P62937 whole entry) above
# KRAS G12C, sequence (P01116 1-169 isoform P01116-2 G12C): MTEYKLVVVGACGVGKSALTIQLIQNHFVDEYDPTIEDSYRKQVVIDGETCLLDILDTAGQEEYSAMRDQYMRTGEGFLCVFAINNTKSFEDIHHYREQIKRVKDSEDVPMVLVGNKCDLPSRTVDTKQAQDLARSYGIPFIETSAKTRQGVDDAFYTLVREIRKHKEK
# KRAS G12C, sequence (P62937 whole entry): as the sequence (P62937 whole entry) above
# KRAS G13D, sequence (P01116 1-169 isoform P01116-2 G13D limits assumed): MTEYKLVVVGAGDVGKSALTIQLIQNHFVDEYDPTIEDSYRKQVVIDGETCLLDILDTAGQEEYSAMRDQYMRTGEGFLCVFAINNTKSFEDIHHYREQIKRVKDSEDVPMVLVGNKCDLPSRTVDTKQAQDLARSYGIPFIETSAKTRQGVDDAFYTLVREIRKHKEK
# KRAS G13D, sequence (P62937 whole entry): as the sequence (P62937 whole entry) above
smiles,measurement,setting,value
CCN1C[C@@H](C(=O)N(C)[C@H](C(=O)N[C@H]2Cc3cc(O)cc(c3)-c3ccc4c(c3)c(c(-c3cnccc3COC)n4CC)CC(C)(C)COC(=O)[C@@H]3CCCN(N3)C2=O)C(C)C)CC1=O [Example A262],IC50,"KRAS G12D; KRAS G12D FRET data, IC50",1000 to 10000 nM
same,IC50,NRAS G12C; [1],100 to 1000 nM
same,IC50,KRAS WT; [2],100 to 1000 nM
same,IC50,"KRAS G12S; KRAS G12S FRET data, IC50",100 to 1000 nM
same,IC50,KRAS G13D; [3],100 to 1000 nM
same,IC50,"KRAS G13C; KRAS G13C FRET data, IC50",100 to 1000 nM
same,IC50,KRAS G12V; [4],100 to 1000 nM
same,IC50,"KRAS G12C; KRAS G12C FRET data, IC50",10 to 100 nM
same,IC50,NCI-H358 (K-Ras G12C),1000 to 10000 nM
same,IC50,Capan-1 (K-Ras G12V),1000 to 10000 nM
CCn1c(-c2cccnc2[C@H](C)OC)c2c3cc(ccc31)-c1csc(n1)C[C@H](NC(=O)[C@H](C(C)C)N(C)C(=O)N1CC(C#N)(N(C)C)C1)C(=O)N1CCC[C@H](N1)C(=O)OCC(C)(C)C2 [Example A452],IC50,KRAS G12D; [5],1000 to 10000 nM
same,IC50,NRAS G12C; [6],10 to 100 nM
same,IC50,KRAS WT; [7],100 to 1000 nM
same,IC50,KRAS G12S; [8],100 to 1000 nM
same,IC50,KRAS G13D; [9],100 to 1000 nM
same,IC50,KRAS G13C; [10],100 to 1000 nM
same,IC50,KRAS G12V; [11],100 to 1000 nM
same,IC50,KRAS G12C; [12],10 to 100 nM
same,IC50,NCI-H358 (K-Ras G12C),10 to 100 nM
same,IC50,Capan-1 (K-Ras G12V),10 to 100 nM
CCn1c(-c2cccnc2[C@H](C)OC)c2c3cc(ccc31)-c1csc(n1)C[C@H](NC(=O)[C@H](C(C)C)N(C)C(=O)[C@@H]1OCC[C@@H]1C)C(=O)N1CCC[C@H](N1)C(=O)OCC(C)(C)C2 [Example A143],IC50,KRAS G12D; [5],> 10000 nM
same,IC50,NRAS G12C; [6],1000 to 10000 nM
same,IC50,KRAS WT; [7],1000 to 10000 nM
same,IC50,KRAS G12S; [8],1000 to 10000 nM
same,IC50,KRAS G13D; [9],1000 to 10000 nM
same,IC50,KRAS G13C; [10],1000 to 10000 nM
same,IC50,KRAS G12V; [11],1000 to 10000 nM
same,IC50,KRAS G12C; [12],1000 to 10000 nM
same,IC50,NCI-H358 (K-Ras G12C),100 to 1000 nM
same,IC50,Capan-1 (K-Ras G12V),100 to 1000 nM
CCn1c(-c2cccnc2[C@H](C)OC)c2c3cc(ccc31)-c1cc(O)cc(c1)C[C@H](NC(=O)[C@H](C(C)C)N(C)C(=O)C1CCN3CCOCC13)C(=O)N1CCC[C@H](N1)C(=O)OCC(C)(C)C2 (some centres unmarked) [Example A123],IC50,"KRAS G12D; KRAS G12D FRET data, IC50",100 to 1000 nM
same,IC50,NRAS G12C; [1],100 to 1000 nM
same,IC50,KRAS WT; [2],100 to 1000 nM
same,IC50,"KRAS G12S; KRAS G12S FRET data, IC50",100 to 1000 nM
same,IC50,KRAS G13D; [3],100 to 1000 nM
same,IC50,"KRAS G13C; KRAS G13C FRET data, IC50",10 to 100 nM
same,IC50,KRAS G12V; [4],100 to 1000 nM
same,IC50,"KRAS G12C; KRAS G12C FRET data, IC50",100 to 1000 nM
same,IC50,NCI-H358 (K-Ras G12C),100 to 1000 nM
same,IC50,Capan-1 (K-Ras G12V),100 to 1000 nM
CCn1c(-c2cccnc2[C@H](C)OC)c2c3cc(ccc31)-c1cc(O)cc(c1)C[C@H](NC(=O)[C@H](C(C)C)N(C)C(=O)[C@H]1CCN(C)C1)C(=O)N1CCC[C@H](N1)C(=O)OCC(C)(C)C2 [Example A100],IC50,KRAS G12D; [5],10 to 100 nM
same,IC50,NRAS G12C; [6],10 to 100 nM
same,IC50,KRAS WT; [7],10 to 100 nM
same,IC50,KRAS G12S; [8],10 to 100 nM
same,IC50,KRAS G13D; [9],10 to 100 nM
same,IC50,KRAS G13C; [10],10 to 100 nM
same,IC50,KRAS G12V; [11],100 to 1000 nM
same,IC50,KRAS G12C; [12],10 to 100 nM
same,IC50,NCI-H358 (K-Ras G12C),100 to 1000 nM
same,IC50,Capan-1 (K-Ras G12V),1000 to 10000 nM
"CCn1c(-c2cccnc2[C@H](C)OC)c2c3cc(ccc31)-c1cc(O)cc(c1)C[C@H](NC(=O)[C@H](C(C)C)N(C)C(=O)C1(O)CC1)C(=O)N1CCC[C@H](N1)C(=O)OCC(C)(C)C2 (atropisomer, axis not shown) [Example A132]",IC50,KRAS G12D; [5],100 to 1000 nM
same,IC50,NRAS G12C; [6],100 to 1000 nM
same,IC50,KRAS WT; [7],100 to 1000 nM
same,IC50,KRAS G12S; [8],100 to 1000 nM
same,IC50,KRAS G13D; [9],100 to 1000 nM
same,IC50,KRAS G13C; [10],10 to 100 nM
same,IC50,KRAS G12V; [11],100 to 1000 nM
same,IC50,KRAS G12C; [12],10 to 100 nM
same,IC50,NCI-H358 (K-Ras G12C),100 to 1000 nM
same,IC50,Capan-1 (K-Ras G12V),10 to 100 nM
"CCn1c(-c2cccnc2[C@H](C)OC)c2c3cc(ccc31)-c1cc(O)cc(c1)C[C@H](NC(=O)[C@H](C(C)C)N(C)C(=O)[C@H]1C[C@@H](O)C1)C(=O)N1CCC[C@H](N1)C(=O)OCC(C)(C)C2 (atropisomer, axis not shown) [Example A121]",IC50,"KRAS G12D; KRAS G12D FRET data, IC50",100 to 1000 nM
same,IC50,NRAS G12C; [1],10 to 100 nM
same,IC50,KRAS WT; [2],10 to 100 nM
same,IC50,"KRAS G12S; KRAS G12S FRET data, IC50",10 to 100 nM
same,IC50,KRAS G13D; [3],10 to 100 nM
same,IC50,"KRAS G13C; KRAS G13C FRET data, IC50",10 to 100 nM
same,IC50,KRAS G12V; [4],10 to 100 nM
same,IC50,"KRAS G12C; KRAS G12C FRET data, IC50",10 to 100 nM
same,IC50,NCI-H358 (K-Ras G12C),100 to 1000 nM
same,IC50,Capan-1 (K-Ras G12V),100 to 1000 nM
CCn1c(-c2cccnc2[C@H](C)OC)c2c3cc(ccc31)-c1cc(O)cc(c1)C[C@H](NC(=O)[C@H](C(C)C)N(C)C(=O)[C@@H]1CC1(C)C)C(=O)N1CCC[C@H](N1)C(=O)OCC(C)(C)C2 [Example A157],IC50,KRAS G12D; [5],100 to 1000 nM
same,IC50,NRAS G12C; [6],10 to 100 nM
same,IC50,KRAS WT; [7],10 to 100 nM
same,IC50,KRAS G12S; [8],100 to 1000 nM
same,IC50,KRAS G13D; [9],100 to 1000 nM
same,IC50,KRAS G13C; [10],100 to 1000 nM
same,IC50,KRAS G12V; [11],100 to 1000 nM
same,IC50,KRAS G12C; [12],10 to 100 nM
same,IC50,NCI-H358 (K-Ras G12C),100 to 1000 nM
same,IC50,Capan-1 (K-Ras G12V),100 to 1000 nM
